Test systems include K-562 leukemia; A549 NSCLC; COLO 205 colon; MCF7 breast; OVCAR-4 ovarian; OVCAR-5 ovarian; MALME-3M melanoma; SW-620 colon; SF-268 CNS; SN12C renal.
Common to all, as to experiment: inhibition of tumour cell growth, NCI panel, 48 h

Each structure is given as a SMILES string.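 Results reflect a 48-hour exposure of cells in 96-well plates to compound at five concentrations. At the TGI there is no net growth.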 Where a SMILES comes first, the peptide text is derived from it. The star is where a group is joined. Cbz = O=C(OCc1ccccc1)* A value given as a limit tells only on which side of the number the result lay.

As for `COP(=O)(OC)[C@@](O)(c1ccccc1)[C@@H](O)[C@H](O)c1ccccc1`, the TGI with K-562 leukemia is greater than 100 µM; in the test with A549 NSCLC it was greater than 100 µM; with COLO 205 colon, greater than 100 µM; with MCF7 breast, 63.3 µM; with OVCAR-4 ovarian, greater than 100 µM; in the test on OVCAR-5 ovarian, greater than 100 µM. For the same compound, the TGI in the test on MALME-3M melanoma, in the test on SW-620 colon, in the test with SF-268 CNS and in the test on SN12C renal was greater than 100 µM throughout.
As for `CSC(=Nc1ccccc1)c1c(C)[nH]n(-c2ccccc2)c1=O`, the TGI with K-562 leukemia, in the test with A549 NSCLC, with COLO 205 colon, in the test with MCF7 breast, in the test with OVCAR-4 ovarian and in the test on OVCAR-5 ovarian was greater than 100 µM each time. For the same compound, the TGI with MALME-3M melanoma, with SW-620 colon, in the test with SF-268 CNS and in the test with SN12C renal was greater than 100 µM throughout.
`CCOC(=O)c1nc(SC)sc1NC(=O)c1ccc(OC)cc1`: the TGI in the test with K-562 leukemia is greater than 100 µM; with A549 NSCLC it was greater than 100 µM; in the test on COLO 205 colon, greater than 100 µM; in the test on MCF7 breast, greater than 100 µM; with OVCAR-4 ovarian it was 89.9 µM; with OVCAR-5 ovarian, greater than 100 µM. In addition, the TGI with MALME-3M melanoma was 88.8 µM; in the test on SW-620 colon, greater than 100 µM; with SF-268 CNS, greater than 100 µM; with SN12C renal, greater than 100 µM.
On to `CCOC(=O)c1nc2ccccc2nc1Nc1cc(OC)c(OC)c(OC)c1`, for which the TGI with K-562 leukemia, in the test with A549 NSCLC, with COLO 205 colon, with MCF7 breast, in the test with OVCAR-4 ovarian and in the test with OVCAR-5 ovarian was greater than 100 µM throughout. The TGI with MALME-3M melanoma, in the test on SF-268 CNS and with SN12C renal was greater than 100 µM throughout.
In the case of `C[C@]12C(=O)OC[C@H](c3ccccc3)N1C(=O)N(Cc1ccccc1)[C@@H]2CO`, the TGI with K-562 leukemia, in the test with A549 NSCLC, in the test on COLO 205 colon, in the test with MCF7 breast, with OVCAR-4 ovarian and with OVCAR-5 ovarian was greater than 100 µM throughout. Besides, the TGI with MALME-3M melanoma, in the test on SW-620 colon, in the test with SF-268 CNS and in the test with SN12C renal was greater than 100 µM throughout.
In the case of `CC(=O)N1N=C(c2ccccc2)NC(=O)C1c1cc(C)c(O)c(C)c1` (configuration not stated), the TGI in the test on K-562 leukemia is greater than 100 µM; in the test on A549 NSCLC, 66.1 µM; with COLO 205 colon, greater than 100 µM; with MCF7 breast, 43.6 µM; in the test with OVCAR-4 ovarian, 43.3 µM; in the test on OVCAR-5 ovarian, greater than 100 µM. Further, the TGI was 38.1 µM in the test with MALME-3M melanoma, greater than 100 µM in the test with SW-620 colon, 34.3 µM in the test with SF-268 CNS and 79.1 µM with SN12C renal.
As for `C/C(=N/NC(=S)N1CCCCCC1)c1cccc(/C(C)=N\NC(=S)N2CCCCCC2)n1`, the TGI in the test with K-562 leukemia is 6.58 µM; in the test on A549 NSCLC it was 4.86 µM; in the test on COLO 205 colon, 3.23 µM; in the test with MCF7 breast, 3.46 µM; in the test with OVCAR-4 ovarian, 2.44 µM; in the test with OVCAR-5 ovarian it was 5.26 µM. Moreover, the TGI turned out to be 2.28 µM with MALME-3M melanoma, 3.55 µM with SW-620 colon, 9.46 µM in the test on SF-268 CNS and 4.57 µM with SN12C renal.
Regarding `Cc1cc2c(cc1Cl)SSc1cc(Cl)c(C)cc1S(=O)(=O)Nc1nc(N)nn1C(O)n1nc(N)nc1NS2(=O)=O`, the TGI in the test on K-562 leukemia, in the test with A549 NSCLC, in the test on COLO 205 colon, in the test on MCF7 breast, in the test with OVCAR-4 ovarian and in the test on OVCAR-5 ovarian was greater than 10 µM each time. Moreover, the TGI in the test with MALME-3M melanoma, in the test with SW-620 colon, in the test on SF-268 CNS and with SN12C renal was greater than 10 µM in each case.
`Cc1cc2c3c(c1)S(=O)(=O)c1cc(Cl)ccc1N3CCC2`: the TGI with K-562 leukemia, in the test with A549 NSCLC, in the test on COLO 205 colon, in the test on MCF7 breast, with OVCAR-4 ovarian and with OVCAR-5 ovarian was greater than 100 µM each time. Moreover, the TGI in the test on MALME-3M melanoma, in the test with SW-620 colon, in the test with SF-268 CNS and in the test with SN12C renal was greater than 100 µM throughout.
Regarding `COc1ccc(C2c3cc4c(cc3OC(N3CCOCC3)C2C)OCO4)cc1OC` (configuration not stated), the TGI is greater than 56.5 µM with K-562 leukemia; greater than 85 µM with A549 NSCLC; greater than 44.2 µM in the test with COLO 205 colon; greater than 96 µM with MCF7 breast; greater than 100 µM in the test with OVCAR-4 ovarian; greater than 100 µM with OVCAR-5 ovarian. The TGI in the test on MALME-3M melanoma, in the test with SW-620 colon, with SF-268 CNS and with SN12C renal was greater than 100 µM in each case.
In the case of `CCCCOC(=O)Nc1ccc(S(=O)(=O)Nc2c(Cl)cccc2Cl)cc1`, the TGI was 47.8 µM with K-562 leukemia; greater than 100 µM in the test with A549 NSCLC; 34.3 µM with COLO 205 colon; 92.4 µM in the test on MCF7 breast; 42.5 µM with OVCAR-4 ovarian; greater than 100 µM in the test with OVCAR-5 ovarian. The TGI in the test with MALME-3M melanoma was 62.7 µM; in the test on SW-620 colon, 90.1 µM; in the test on SF-268 CNS it was greater than 100 µM; with SN12C renal it was greater than 100 µM.
In the case of `CCOC(=O)CCC(NC(=O)C(CC(=O)OC)NC(=O)OCc1ccccc1)C(=O)NC(CC(=O)OC)C(=O)NC(CCC(=O)OCC)C(=O)NC(CC(=O)OC)C(=O)NC(CCC(=O)OCC)C(=O)NC(CC(=O)OCC)C(=O)OCC` (configuration not stated) (Cbz-D(OMe)E(OEt)D(OMe)E(OEt)D(OMe)E(OEt)D(OEt)-OEt; configuration not given here), the TGI in the test on K-562 leukemia, in the test on A549 NSCLC, in the test on MCF7 breast, in the test with OVCAR-4 ovarian, in the test on OVCAR-5 ovarian and in the test on MALME-3M melanoma was greater than 100 µM in each case. The TGI with SW-620 colon and in the test with SN12C renal was greater than 100 µM each time.
As for `CCCCOc1ccc(/C=C/C2=[N+](CCO)CCO2)cc1`, the TGI with K-562 leukemia is 66.5 µM; with A549 NSCLC it was greater than 100 µM; in the test on COLO 205 colon it was 54.3 µM; in the test on MCF7 breast, greater than 100 µM; in the test with OVCAR-4 ovarian it was greater than 100 µM; in the test with OVCAR-5 ovarian it was greater than 100 µM. The TGI with MALME-3M melanoma was greater than 100 µM; in the test on SW-620 colon it was 86.5 µM; with SF-268 CNS, greater than 100 µM; in the test with SN12C renal it was greater than 100 µM.

The record behind these values is PubChem BioAssay (NCI).
